Laboratory results taken from US10945992B1, “Dosage forms of rofecoxib and related methods” (Tremeau Pharmaceuticals, Inc., priority 2019, dated 2021).
Read-outs that look alike come from different tables or passages of the source.

Assay: TRM-201-PK-102 single-dose four-period crossover pharmacokinetic study, fasted healthy subjects
Format: in vivo, human
Settings: human, plasma, oral; for Cmax / AUC(0-inf): 102 study
Procedure: A Single-Dose, Open-Label, Phase 1, Four-Period Crossover Pharmacokinetic Study of TRM-201 (Rofecoxib) 12.5 mg, 17.5 mg, 20 mg and 25 mg Administered to Healthy Subjects in a Fasting State, with Comparison to Historical Pharmacokinetic Parameters of Previously Marketed Rofecoxib (“TRM-201-PK-102” or “102 PK Study”)
This was a single-center, open-label four-period crossover PK study of TRM-201. The study included 24 subjects who received TRM-201 as a single dose of 12.5 mg, 17.5 mg, 20 mg and 25 mg to assess the PK of TRM-201 in healthy volunteers under fasted conditions. Subjects were randomized to one of four treatment sequences. The PK data from the current study along with the data from the TRM-201-PK-101 study (Example 4) was used to compare to historical pharmacokinetic parameters of previously marketed rofecoxib, all in a fasted state.
In each of the four dosing periods, subjects fasted overnight for at least 10 hours before study drug dosing. While fasting, subjects had nothing to eat and only water to drink. Water was permitted as desired, except for the period between 1 hour before and 1 hour after study drug dosing (excepting as permitted for dosing). After the 2-hour PK blood sample, subjects were allowed one 250-mL cup of clear apple juice. After the 4-hour PK blood sample, subjects were served a light lunch. Following the light lunch, subjects received standardized meals according to the clinic's standard procedures that were scheduled at consistent times and at least 15 minutes before or 15 minutes after PK sampling time points. Blood was withdrawn for PK analysis at predefined time points. For each dosing period the last time point was 120 hours after dosing with study drug (Day 6). After the 120 hour PK sample, the EOP procedures was completed, subjects remained in-clinic for the in-between dose period day (Days 7, 14, and 21) and began the next dosing period starting with an overnight fast for at least 10 hours on Day −1 of the subsequent dosing period. Pharmacokinetic and safety endpoints were evaluated.
The study drug, TRM-201, was an immediate-release tablet that contained 12.5 mg rofecoxib, 17.5 mg rofecoxib, 20 mg rofecoxib or 25 mg rofecoxib. The 7.25-mm diameter tablets were off-white, round, and uncoated with no markings. TRM-201 tablets were for oral administration.
For each sample, approximately 3 mL of blood were drawn. The samples were obtained by a straight stick or via an in-dwelling intravenous (IV) catheter in a forearm vein. Additional details for the collection, processing, storage, and shipping of PK samples were provided in the study manual.
Pharmacokinetic samples will be analyzed using a validated assay for rofecoxib in human plasma. Assay results and validation details will be provided in a separate bioanalytical report. The following PK parameters for rofecoxib will be calculated as primary endpoints using standard noncompartmental methods: AUC0-∞ and Cmax. Secondary endpoints include Tmax, and t1/2. Additional PK parameters (e.g., CL/F, and Vd/F) will also be calculated using standard noncompartmental methods.
Individual plasma concentrations for rofecoxib and PK sampling time deviation data will be presented in a data listing. Plasma concentration data will be summarized by time point using the following descriptive statistics: number of subjects, arithmetic mean, SD, coefficient of variation (CV), geometric mean, natural-log-scale SD, geometric CV, median, minimum, and maximum. Individual plasma concentration versus actual time profiles were presented on both linear and semilogarithmic scales. Additionally, arithmetic mean concentration versus scheduled time profiles were presented on linear scales and geometric means on semilogarithmic scales.
The PK parameters of rofecoxib were analyzed based on the actual sampling times. […]

[1] = 25 mg, read-out: arithmetic mean plasma concentration
[2] = 25 mg, read-out: geometric mean plasma concentration

Question: What does the source list for CS(=O)(=O)c1ccc(C2=C(c3ccccc3)C(=O)OC2)cc1 [TRM-201, 4-[4-(methylsulfonyl)phenyl]-3-phenyl-2(5H)-furanone]?
Answer: Cmax (25 mg, 41-52 years, read-out: arithmetic mean Cmax): 326 ng/mL; AUC(0-inf) (25 mg, 41-52 years, read-out: geometric mean AUC0-∞): 4580 ng·h/mL; Cmax (25 mg, 41-52 years, read-out: geometric mean Cmax): 321 ng/mL; AUC(0-inf) (25 mg, 53-60 years, read-out: arithmetic mean AUC0-∞): 4940 ng·h/mL; Cmax (25 mg, 53-60 years, read-out: arithmetic mean Cmax): 354 ng/mL; AUC(0-inf) (25 mg, 53-60 years, read-out: geometric mean AUC0-∞): 4880 ng·h/mL; Cmax (25 mg, 53-60 years, read-out: geometric mean Cmax): 347 ng/mL; AUC(0-inf) (25 mg, Black or African-American subjects, read-out: arithmetic mean AUC0-∞): 3990 ng·h/mL; Cmax (25 mg, Black or African-American subjects, read-out: arithmetic mean Cmax): 340 ng/mL; AUC(0-inf) (25 mg, Black or African-American subjects, read-out: geometric mean AUC0-∞): 3940 ng·h/mL; Cmax (25 mg, Black or African-American subjects, read-out: geometric mean Cmax): 339 ng/mL; AUC(0-inf) (25 mg, Hispanic or Latino subjects, read-out: arithmetic mean AUC0-∞): 4980 ng·h/mL; Cmax (25 mg, Hispanic or Latino subjects, read-out: arithmetic mean Cmax): 358 ng/mL; AUC(0-inf) (25 mg, Hispanic or Latino subjects, read-out: geometric mean AUC0-∞): 4870 ng·h/mL; Cmax (25 mg, Hispanic or Latino subjects, read-out: geometric mean Cmax): 351 ng/mL; AUC(0-inf) (25 mg, White subjects, read-out: arithmetic mean AUC0-∞): 4800 ng·h/mL; Cmax (25 mg, White subjects, read-out: arithmetic mean Cmax): 351 ng/mL; AUC(0-inf) (25 mg, White subjects, read-out: geometric mean AUC0-∞): 4650 ng·h/mL; Cmax (25 mg, White subjects, read-out: geometric mean Cmax): 341 ng/mL; AUC(0-inf) (25 mg, body weight 47-70 kg, read-out: arithmetic mean AUC0-∞): 4450 ng·h/mL; Cmax (25 mg, body weight 47-70 kg, read-out: arithmetic mean Cmax): 385 ng/mL; AUC(0-inf) (25 mg, body weight 47-70 kg, read-out: geometric mean AUC0-∞): 4310 ng·h/mL; Cmax (25 mg, body weight 47-70 kg, read-out: geometric mean Cmax): 376 ng/mL; AUC(0-inf) (25 mg, body weight 70.1-77 kg, read-out: arithmetic mean AUC0-∞): 5470 ng·h/mL; Cmax (25 mg, body weight 70.1-77 kg, read-out: arithmetic mean Cmax): 371 ng/mL; AUC(0-inf) (25 mg, body weight 70.1-77 kg, read-out: geometric mean AUC0-∞): 5410 ng·h/mL; Cmax (25 mg, body weight 70.1-77 kg, read-out: geometric mean Cmax): 368 ng/mL; AUC(0-inf) (25 mg, body weight 77.1-90 kg, read-out: arithmetic mean AUC0-∞): 4130 ng·h/mL; Cmax (25 mg, body weight 77.1-90 kg, read-out: arithmetic mean Cmax): 299 ng/mL; AUC(0-inf) (25 mg, body weight 77.1-90 kg, read-out: geometric mean AUC0-∞): 4040 ng·h/mL; Cmax (25 mg, body weight 77.1-90 kg, read-out: geometric mean Cmax): 294 ng/mL; AUC(0-inf) (25 mg, non-Hispanic or non-Latino subjects, read-out: arithmetic mean AUC0-∞): 4280 ng·h/mL; Cmax (25 mg, non-Hispanic or non-Latino subjects, read-out: arithmetic mean Cmax): 340 ng/mL; AUC(0-inf) (25 mg, non-Hispanic or non-Latino subjects, read-out: geometric mean AUC0-∞): 4150 ng·h/mL; Cmax (25 mg, non-Hispanic or non-Latino subjects, read-out: geometric mean Cmax): 331 ng/mL; concentration at 15 minutes [1]: 5.63 ng/mL; concentration at 15 minutes [2]: 1.37 ng/mL; concentration at 45 minutes [1]: 159 ng/mL; concentration at 45 minutes [2]: 97.6 ng/mL; AUC(0-inf) (male, 12.5 mg, males, read-out: arithmetic mean AUC0-∞): 1750 ng·h/mL; Cmax (male, 12.5 mg, males, read-out: arithmetic mean Cmax): 132 ng/mL; AUC(0-inf) (male, 12.5 mg, males, read-out: geometric mean AUC0-∞): 1580 ng·h/mL; Cmax (male, 12.5 mg, males, read-out: geometric mean Cmax): 127 ng/mL; AUC(0-inf) (male, 17.5 mg, males, read-out: arithmetic mean AUC0-∞): 2860 ng·h/mL; Cmax (male, 17.5 mg, males, read-out: arithmetic mean Cmax): 201 ng/mL; AUC(0-inf) (male, 17.5 mg, males, read-out: geometric mean AUC0-∞): 2710 ng·h/mL; Cmax (male, 17.5 mg, males, read-out: geometric mean Cmax): 196 ng/mL; AUC(0-inf) (male, 20 mg, males, read-out: arithmetic mean AUC0-∞): 3130 ng·h/mL; Cmax (male, 20 mg, males, read-out: arithmetic mean Cmax): 234 ng/mL; AUC(0-inf) (male, 20 mg, males, read-out: geometric mean AUC0-∞): 2940 ng·h/mL; Cmax (male, 20 mg, males, read-out: geometric mean Cmax): 224 ng/mL; AUC(0-inf) (male, 25 mg, males, read-out: arithmetic mean AUC0-∞): 4080 ng·h/mL; Cmax (male, 25 mg, males, read-out: arithmetic mean Cmax): 302 ng/mL; AUC(0-inf) (male, 25 mg, males, read-out: geometric mean AUC0-∞): 3940 ng·h/mL; Cmax (male, 25 mg, males, read-out: geometric mean Cmax): 298 ng/mL; AUC(0-inf) (male, 25 mg, printed 'For males' (second statement, after the females' arithmetic means), read-out: geometric mean AUC0-∞): 5020 ng·h/mL; Cmax (male, 25 mg, printed 'For males' (second statement, after the females' arithmetic means), read-out: geometric mean Cmax): 382 ng/mL
